Test results as given in PubChem BioAssay AID588472 (The Scripps Research Institute Molecular Screening Center, 2011).

Legend:
Experiment in all cases: PubChem AID 588472; call rule not given here
[1] = target: Protein-arginine deiminase type-1 (Homo sapiens) (UniProt Q9ULC6); details: recombinant PAD1-4, colorimetric citrullination assay; PAD1
[2] = target: Protein-arginine deiminase type-2 (Homo sapiens) (UniProt Q9Y2J8); details: recombinant PAD1-4, colorimetric citrullination assay; PAD2
[3] = target: Protein-arginine deiminase type-3 (Homo sapiens) (UniProt Q9ULW8); details: recombinant PAD1-4, colorimetric citrullination assay; PAD3
Chain of Protein-arginine deiminase type-3 (Homo sapiens) (Q9ULW8 whole entry, looked up): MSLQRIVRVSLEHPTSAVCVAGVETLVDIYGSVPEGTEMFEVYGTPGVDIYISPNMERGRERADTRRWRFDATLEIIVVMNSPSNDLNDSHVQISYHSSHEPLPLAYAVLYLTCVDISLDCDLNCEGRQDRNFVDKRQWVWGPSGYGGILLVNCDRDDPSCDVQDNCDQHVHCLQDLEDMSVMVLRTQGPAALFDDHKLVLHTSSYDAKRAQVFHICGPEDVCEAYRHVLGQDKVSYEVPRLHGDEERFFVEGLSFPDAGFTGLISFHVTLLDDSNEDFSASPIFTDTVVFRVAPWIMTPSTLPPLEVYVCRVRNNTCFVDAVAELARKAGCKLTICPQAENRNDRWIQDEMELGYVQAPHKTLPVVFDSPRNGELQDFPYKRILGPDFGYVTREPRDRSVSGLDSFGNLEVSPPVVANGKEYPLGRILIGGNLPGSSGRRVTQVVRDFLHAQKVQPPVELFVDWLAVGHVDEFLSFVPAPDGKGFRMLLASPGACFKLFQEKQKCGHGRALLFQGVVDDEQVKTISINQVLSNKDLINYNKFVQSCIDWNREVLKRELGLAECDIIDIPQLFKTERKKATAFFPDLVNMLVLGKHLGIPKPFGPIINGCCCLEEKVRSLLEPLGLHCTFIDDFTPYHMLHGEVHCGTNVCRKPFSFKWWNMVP

[4] = target: Protein-arginine deiminase type-4 (Homo sapiens) (UniProt Q9UM07); details: recombinant PAD1-4, colorimetric citrullination assay; PAD4
Chain of Protein-arginine deiminase type-4 (Homo sapiens) (Q9UM07 whole entry, looked up): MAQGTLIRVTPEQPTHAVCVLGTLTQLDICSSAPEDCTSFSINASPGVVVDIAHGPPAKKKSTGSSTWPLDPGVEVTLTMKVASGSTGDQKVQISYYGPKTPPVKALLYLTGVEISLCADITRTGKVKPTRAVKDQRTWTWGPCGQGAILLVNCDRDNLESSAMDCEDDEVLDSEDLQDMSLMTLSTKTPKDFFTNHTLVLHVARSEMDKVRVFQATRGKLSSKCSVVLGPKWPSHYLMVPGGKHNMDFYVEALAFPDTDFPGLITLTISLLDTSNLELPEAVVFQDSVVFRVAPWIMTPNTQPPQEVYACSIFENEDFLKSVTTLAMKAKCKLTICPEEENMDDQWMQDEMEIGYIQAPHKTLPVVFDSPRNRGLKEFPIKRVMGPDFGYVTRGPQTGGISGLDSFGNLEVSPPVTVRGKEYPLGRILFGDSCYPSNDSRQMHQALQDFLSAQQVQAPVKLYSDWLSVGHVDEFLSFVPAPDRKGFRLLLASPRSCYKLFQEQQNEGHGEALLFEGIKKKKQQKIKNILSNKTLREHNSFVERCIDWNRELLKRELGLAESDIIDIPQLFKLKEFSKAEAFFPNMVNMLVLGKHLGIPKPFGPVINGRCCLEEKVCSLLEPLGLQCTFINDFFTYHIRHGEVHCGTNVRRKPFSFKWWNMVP

Measured: IC50

Chain of Protein-arginine deiminase type-2 (Homo sapiens) (Q9Y2J8 whole entry, looked up): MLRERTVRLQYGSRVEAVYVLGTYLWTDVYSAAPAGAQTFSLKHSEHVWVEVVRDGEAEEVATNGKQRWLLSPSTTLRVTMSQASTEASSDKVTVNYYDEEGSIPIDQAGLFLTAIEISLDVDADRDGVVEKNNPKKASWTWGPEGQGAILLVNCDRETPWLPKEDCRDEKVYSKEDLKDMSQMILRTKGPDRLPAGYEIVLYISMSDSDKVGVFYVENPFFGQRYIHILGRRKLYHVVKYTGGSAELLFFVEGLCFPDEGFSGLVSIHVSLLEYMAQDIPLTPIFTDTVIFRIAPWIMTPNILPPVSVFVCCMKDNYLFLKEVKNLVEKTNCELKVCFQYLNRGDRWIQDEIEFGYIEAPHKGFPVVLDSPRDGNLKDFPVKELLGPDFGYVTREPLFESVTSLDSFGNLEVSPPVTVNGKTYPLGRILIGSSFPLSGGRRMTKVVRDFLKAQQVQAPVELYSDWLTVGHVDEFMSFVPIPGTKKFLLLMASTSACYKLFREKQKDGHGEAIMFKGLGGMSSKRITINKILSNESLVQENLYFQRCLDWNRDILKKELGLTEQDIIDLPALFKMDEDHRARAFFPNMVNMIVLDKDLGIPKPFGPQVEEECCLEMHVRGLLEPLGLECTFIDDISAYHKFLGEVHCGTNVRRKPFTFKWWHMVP
Chain of Protein-arginine deiminase type-1 (Homo sapiens) (Q9ULC6 whole entry, looked up): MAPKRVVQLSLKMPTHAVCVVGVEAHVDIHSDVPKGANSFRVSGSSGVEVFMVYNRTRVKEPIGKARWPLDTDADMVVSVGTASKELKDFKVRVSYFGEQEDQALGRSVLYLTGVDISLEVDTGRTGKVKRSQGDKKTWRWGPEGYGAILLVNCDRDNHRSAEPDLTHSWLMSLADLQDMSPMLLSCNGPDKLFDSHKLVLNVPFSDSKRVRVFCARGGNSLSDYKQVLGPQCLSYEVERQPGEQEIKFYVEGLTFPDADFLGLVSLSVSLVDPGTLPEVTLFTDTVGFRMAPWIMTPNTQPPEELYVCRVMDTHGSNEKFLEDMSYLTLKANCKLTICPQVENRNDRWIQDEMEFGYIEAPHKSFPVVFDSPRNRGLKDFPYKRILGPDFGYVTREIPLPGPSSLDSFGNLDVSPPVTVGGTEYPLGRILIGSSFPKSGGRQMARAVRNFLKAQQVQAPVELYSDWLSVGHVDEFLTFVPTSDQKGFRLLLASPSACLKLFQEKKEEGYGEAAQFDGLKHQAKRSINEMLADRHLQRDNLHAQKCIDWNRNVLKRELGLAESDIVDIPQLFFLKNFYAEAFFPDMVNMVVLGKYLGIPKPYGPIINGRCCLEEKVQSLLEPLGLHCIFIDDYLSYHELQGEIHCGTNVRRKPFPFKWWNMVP

NC1=CC(=O)c2cccnc2C1=O
active: [1] 970 nM | [2] 740 nM | [3] 170 nM | [4] 1000 nM
